How the values were obtained:
[1] = Turbidity measurement (LCST/UCST-like behavior, Tt); assay type: physicochemical; conditions: for Tt for the LCST-like behavior: Tt = temperature at half the maximum turbidity, mean ± standard error, at least three measurements; for Temperature-responsive behavior in turbidity measurement: heating to 90 °C and cooling to 5 °C at 1 °C/min, turbidity at 400 nm
Description: Temperature-responsive properties (LCST/UCST-like behavior and its reversibility) were investigated by using a JASCO V-660 spectral photometer (JASCO, Tokyo, Japan). Each peptide was dissolved in phosphate buffer containing NaCl (pH 7.4, 27.4 mM Na2HPO4, 17.8 mM NaH2PO4, 1 M NaCl). NaCl in this concentration is used as an additive to trigger an LCST-like behavior for the inverse transition cycling (a method to purify a protein exploiting the LCST-like behavior of ELPs).[9] The turbidity at 400 nm of each branched ELP solution was traced while increasing or decreasing the temperature at a rate of 0.5 °C/min, except for samples at 0.5 mM, which were traced at 1 °C/min for heating–cooling cycle measurements. For the samples at 0.5 mM, after heating to 90 °C or cooling to 5 °C, the samples were vortexed to eliminate any possible concentration gradients caused by peptide precipitation and kept at 90 or 5 °C for 30 min before starting the subsequent cooling or heating, respectively. The transition temperature (Tt) for LCST was defined as a temperature at which the turbidity of the solution reaches half the maximum value while increasing the temperature. Measurements were performed at least three times.

[2] = DLS measurement of particle size distribution; assay type: physicochemical; conditions: peptide 0.5 mM, filtered phosphate buffer pH 7.4 with 1 M NaCl
Description: The particle size distribution of branched ELPs was analyzed in filtered phosphate buffer (pH 7.4, 27.4 mM Na2HPO4, 17.8 mM NaH2PO4) containing 1 M NaCl using DLS with a Zetasizer Nano ZS (Malvern Instruments, Worcestershire, U.K.) DLS analysis was performed at temperatures ranging from 15 to 55 °C with 10 °C intervals for [α-E(F1)]n-F1 and [γ-E(F1)]n-F1 under conditions where the ELPs have Tt values around 30 °C for LCST-like behavior (n = 4, 2.5 mM; n = 5, 1 mM; n = 6, 0.5 mM). Additionally, a solution of [α-E(F1)]5-F1 at 0.5 mM was analyzed at 20, 60, and 90 °C. The measurement duration was selected automatically. The parameter data set “protein” (data set: refractive index, 1.450; absorption, 0.001) was used as the material parameter, and the parameter data set “water” (data set: refractive index, 1.330; viscosity, 0.8872) was chosen as the dispersant parameter. Attenuation was selected automatically.

[3] = CD measurement (aggregation observed in sample); assay type: physicochemical; conditions: 0.1 mg/mL in filtered phosphate buffer pH 7.4 without NaCl; 10 to 90 °C
Description: CD measurements were carried out using a J-725 spectropolarimeter (JASCO) for [α-E(F1)]5-F1 and [γ-E(F1)]5-F1 in a cuvette with a path length of 1.0 mm. Each peptide was dissolved in filtered phosphate buffer (pH 7.4, 27.4 mM Na2HPO4, and 17.8 mM NaH2PO4) at a concentration of 0.1 mg/mL. […] Spectra were obtained from 190 to 260 nm at temperatures ranging from 10 to 90 °C with 20 °C intervals. Each measurement was performed after 3 min of equilibration at the target temperature. After subtracting the background spectra, Savitzky–Golay filters were applied to smooth all spectra.

[4] = ThT fluorescence assay; assay type: physicochemical; conditions: peptide 1 mM; 50 μM ThT; phosphate buffer pH 7.4 with 1 M NaCl; excitation 446 nm, emission 483 nm
Description: A ThT fluorescence assay was conducted using an FP-8500 fluorescence spectrometer (JASCO Co.). The phosphate buffer solutions (pH 7.4, 27.4 mM Na2HPO4, 17.8 mM NaH2PO4) of [α-E(F1)]5-F1 (1 or 0.5 mM) containing 1 M NaCl and 50 μM ThT were prepared. The temperature change rates were the same as those in the turbidity measurements. Using an excitation wavelength of 446 nm, the ThT fluorescence intensities at 483 nm upon temperature changes or over time were recorded.

[5] = monomeric pentapeptide; cited from earlier work
From the text: Short ELPs with a (VPGVG)n sequence ...

[6] = peptide 1.5 mM, turbidity at 400 nm on heating 0.5 °C/min, phosphate buffer pH 7.4 with 1 M NaCl
[7] = peptide 2.5 mM, turbidity at 400 nm on heating 0.5 °C/min, phosphate buffer pH 7.4 with 1 M NaCl
[8] = peptide 4 mM, turbidity at 400 nm on heating 0.5 °C/min, phosphate buffer pH 7.4 (27.4 mM Na2HPO4, 17.8 mM NaH2PO4) with 1 M NaCl
[9] = peptide 0.5 mM, phosphate buffer pH 7.4 with 1 M NaCl
[10] = peptide 0.5 mM, turbidity at 400 nm on heating (1 °C/min for heating-cooling cycle measurements), phosphate buffer pH 7.4 with 1 M NaCl
[11] = peptide 1 mM, turbidity at 400 nm on heating 0.5 °C/min, phosphate buffer pH 7.4 with 1 M NaCl

Compound | Tt for the LCST-like behavior [1, 7] [°C] | Tt for the LCST-like behavior [1, 10] [°C] | Tt for the LCST-like behavior [1, 11] [°C] | also measured
CC(C)[C@H](NC(=O)CNC(=O)[C@@H]1CCCN1C(=O)[C@H](Cc1ccccc1)NC(=O)CC[C@H](NC(=O)[C@H](CCC(=O)N[C@@H](Cc1ccccc1)C(=O)N1CCC[C@H]1C(=O)NCC(=O)N[C@H](C(=O)NCC(N)=O)C(C)C)NC(=O)[C@@H](N)CCC(=O)N[C@@H](Cc1ccccc1)C(=O)N1CCC[C@H]1C(=O)NCC(=O)N[C@H](C(=O)NCC(N)=O)C(C)C)C(=O)N[C@@H](CCC(=O)N[C@@H](Cc1ccccc1)C(=O)N1CCC[C@H]1C(=O)NCC(=O)N[C@H](C(=O)NCC(N)=O)C(C)C)C(=O)N[C@@H](Cc1ccccc1)C(=O)N1CCC[C@H]1C(=O)NCC(=O)N[C@H](C(=O)NCC(N)=O)C(C)C)C(=O)NCC(N)=O [[α-E(F1)]4-F1] | 29.98 ± 1.82 | – | – | Tt for the LCST-like behavior [1, 6]: 47.04 ± 0.81 °C; Tt for the LCST-like behavior [1, 8]: 21.12 ± 1.68 °C
CC(C)[C@H](NC(=O)CNC(=O)[C@@H]1CCCN1C(=O)[C@H](Cc1ccccc1)NC(=O)CC[C@H](NC(=O)[C@H](CCC(=O)N[C@@H](Cc1ccccc1)C(=O)N1CCC[C@H]1C(=O)NCC(=O)N[C@H](C(=O)NCC(N)=O)C(C)C)NC(=O)[C@H](CCC(=O)N[C@@H](Cc1ccccc1)C(=O)N1CCC[C@H]1C(=O)NCC(=O)N[C@H](C(=O)NCC(N)=O)C(C)C)NC(=O)[C@@H](N)CCC(=O)N[C@@H](Cc1ccccc1)C(=O)N1CCC[C@H]1C(=O)NCC(=O)N[C@H](C(=O)NCC(N)=O)C(C)C)C(=O)N[C@@H](CCC(=O)N[C@@H](Cc1ccccc1)C(=O)N1CCC[C@H]1C(=O)NCC(=O)N[C@H](C(=O)NCC(N)=O)C(C)C)C(=O)N[C@@H](Cc1ccccc1)C(=O)N1CCC[C@H]1C(=O)NCC(=O)N[C@H](C(=O)NCC(N)=O)C(C)C)C(=O)NCC(N)=O [[α-E(F1)]5-F1] | 13.86 ± 0.33 | 56.92 ± 1.28 | – | Hydrodynamic diameter at 20, 60 and 90 °C [2]: larger hydrodynamic diameters at 60 °C compared to the ones at 20 or 90 °C; Aggregation behavior in CD sample [3]: apparent aggregation behavior was not observed; Temperature-responsive behavior in turbidity measurement [1, 9]: both LCST- and UCST-like behavior; Solubility at 90 °C ([1]; peptide 1 mM and 2.5 mM at 90 °C, phosphate buffer pH 7.4 with 1 M NaCl, images of measurement cell): insoluble; ThT fluorescence intensity upon heating [4]: sharp increase in fluorescence intensity around Tt
H-FPGVG-NH2 [F1, monomeric elastin-like pentapeptide Phe-Pro-Gly-Val-Gly amide] | – | – | – | Coacervation (LCST-like behavior) [5]: did not show coacervation

Second part, led by results:

Tt for the LCST-like behavior [1, 7] [°C] | Tt for the LCST-like behavior [1, 10] [°C] | Tt for the LCST-like behavior [1, 11] [°C] | Compound | also measured
17.38 ± 0.10 | 61.87 ± 0.60 | 34.73 ± 0.52 | CC(C)[C@H](NC(=O)CNC(=O)[C@@H]1CCCN1C(=O)[C@H](Cc1ccccc1)NC(=O)CC[C@H](NC(=O)CC[C@H](NC(=O)CC[C@H](NC(=O)CC[C@H](NC(=O)CC[C@H](N)C(=O)N[C@@H](Cc1ccccc1)C(=O)N1CCC[C@H]1C(=O)NCC(=O)N[C@H](C(=O)NCC(N)=O)C(C)C)C(=O)N[C@@H](Cc1ccccc1)C(=O)N1CCC[C@H]1C(=O)NCC(=O)N[C@H](C(=O)NCC(N)=O)C(C)C)C(=O)N[C@@H](Cc1ccccc1)C(=O)N1CCC[C@H]1C(=O)NCC(=O)N[C@H](C(=O)NCC(N)=O)C(C)C)C(=O)N[C@@H](Cc1ccccc1)C(=O)N1CCC[C@H]1C(=O)NCC(=O)N[C@H](C(=O)NCC(N)=O)C(C)C)C(=O)N[C@@H](Cc1ccccc1)C(=O)N1CCC[C@H]1C(=O)NCC(=O)N[C@H](C(=O)NCC(N)=O)C(C)C)C(=O)NCC(N)=O [[γ-E(F1)]5-F1] | Aggregation behavior in CD sample [3]: apparent aggregation behavior was not observed; Temperature-responsive behavior in turbidity measurement [1, 9]: both LCST- and UCST-like behavior
8.63 ± 0.31 | 34.56 ± 0.48 | 23.66 ± 0.06 | CC(C)[C@H](NC(=O)CNC(=O)[C@@H]1CCCN1C(=O)[C@H](Cc1ccccc1)NC(=O)CC[C@H](NC(=O)CC[C@H](NC(=O)CC[C@H](NC(=O)CC[C@H](NC(=O)CC[C@H](NC(=O)CC[C@H](N)C(=O)N[C@@H](Cc1ccccc1)C(=O)N1CCC[C@H]1C(=O)NCC(=O)N[C@H](C(=O)NCC(N)=O)C(C)C)C(=O)N[C@@H](Cc1ccccc1)C(=O)N1CCC[C@H]1C(=O)NCC(=O)N[C@H](C(=O)NCC(N)=O)C(C)C)C(=O)N[C@@H](Cc1ccccc1)C(=O)N1CCC[C@H]1C(=O)NCC(=O)N[C@H](C(=O)NCC(N)=O)C(C)C)C(=O)N[C@@H](Cc1ccccc1)C(=O)N1CCC[C@H]1C(=O)NCC(=O)N[C@H](C(=O)NCC(N)=O)C(C)C)C(=O)N[C@@H](Cc1ccccc1)C(=O)N1CCC[C@H]1C(=O)NCC(=O)N[C@H](C(=O)NCC(N)=O)C(C)C)C(=O)N[C@@H](Cc1ccccc1)C(=O)N1CCC[C@H]1C(=O)NCC(=O)N[C@H](C(=O)NCC(N)=O)C(C)C)C(=O)NCC(N)=O [[γ-E(F1)]6-F1] | –
7.68 ± 0.80 | 33.80 ± 0.38 | 19.76 ± 0.97 | CC(C)[C@H](NC(=O)CNC(=O)[C@@H]1CCCN1C(=O)[C@H](Cc1ccccc1)NC(=O)CC[C@H](NC(=O)[C@H](CCC(=O)N[C@@H](Cc1ccccc1)C(=O)N1CCC[C@H]1C(=O)NCC(=O)N[C@H](C(=O)NCC(N)=O)C(C)C)NC(=O)[C@H](CCC(=O)N[C@@H](Cc1ccccc1)C(=O)N1CCC[C@H]1C(=O)NCC(=O)N[C@H](C(=O)NCC(N)=O)C(C)C)NC(=O)[C@@H](N)CCC(=O)N[C@@H](Cc1ccccc1)C(=O)N1CCC[C@H]1C(=O)NCC(=O)N[C@H](C(=O)NCC(N)=O)C(C)C)C(=O)N[C@@H](CCC(=O)N[C@@H](Cc1ccccc1)C(=O)N1CCC[C@H]1C(=O)NCC(=O)N[C@H](C(=O)NCC(N)=O)C(C)C)C(=O)N[C@@H](CCC(=O)N[C@@H](Cc1ccccc1)C(=O)N1CCC[C@H]1C(=O)NCC(=O)N[C@H](C(=O)NCC(N)=O)C(C)C)C(=O)N[C@@H](Cc1ccccc1)C(=O)N1CCC[C@H]1C(=O)NCC(=O)N[C@H](C(=O)NCC(N)=O)C(C)C)C(=O)NCC(N)=O [[α-E(F1)]6-F1] | –
30.25 ± 0.23 | – | – | CC(C)[C@H](NC(=O)CNC(=O)[C@@H]1CCCN1C(=O)[C@H](Cc1ccccc1)NC(=O)CC[C@H](NC(=O)CC[C@H](NC(=O)CC[C@H](NC(=O)CC[C@H](N)C(=O)N[C@@H](Cc1ccccc1)C(=O)N1CCC[C@H]1C(=O)NCC(=O)N[C@H](C(=O)NCC(N)=O)C(C)C)C(=O)N[C@@H](Cc1ccccc1)C(=O)N1CCC[C@H]1C(=O)NCC(=O)N[C@H](C(=O)NCC(N)=O)C(C)C)C(=O)N[C@@H](Cc1ccccc1)C(=O)N1CCC[C@H]1C(=O)NCC(=O)N[C@H](C(=O)NCC(N)=O)C(C)C)C(=O)N[C@@H](Cc1ccccc1)C(=O)N1CCC[C@H]1C(=O)NCC(=O)N[C@H](C(=O)NCC(N)=O)C(C)C)C(=O)NCC(N)=O [[γ-E(F1)]4-F1] | Tt for the LCST-like behavior [1, 6]: 46.52 ± 0.67 °C; Tt for the LCST-like behavior [1, 8]: 20.75 ± 0.47 °C
